Species: Rattus norvegicus
Assay: DrugMatrix - Regimen: Daily Repeat
Format: toxicity, organism-based, Sprague-Dawley
Set-up: regimen Daily Repeat, gender Male, age 6-8 weeks
Conditions: in vivo, po, route oral GAVAGE, vehicle .5 % CMC; for ABSOLUTE BASOPHIL / ABSOLUTE EOSINOPHIL / ABSOLUTE LYMPHOCYTE / ABSOLUTE MONOCYTE / ABSOLUTE SEGMENTED NEUTROPHIL / BASOPHIL / EOSINOPHIL / ERYTHROCYTE COUNT / HEMATOCRIT / HEMOGLOBIN / LEUKOCYTE COUNT / LYMPHOCYTE / MEAN CORPUSCULAR HEMOGLOBIN / MEAN CORPUSCULAR HEMOGLOBIN CONCENTRATION / MEAN CORPUSCULAR VOLUME / MONOCYTE / NEUTROPHIL / NUCLEATED RED BLOOD CELLS / PLATELET COUNT: tissue Blood; for ALANINE AMINOTRANSFERASE / ALBUMIN / ALKALINE PHOSPHATASE / ASPARTATE AMINOTRANSFERASE / BLOOD UREA NITROGEN / CARBON DIOXIDE / CHLORIDE / CHOLESTEROL / CREATINE PHOSPHOKINASE / CREATININE / GLUCOSE / LACTATE DEHYDROGENASE / LIPASE / PHOSPHORUS / POTASSIUM / SODIUM / TOTAL BILIRUBIN / TOTAL PROTEIN / URIC ACID: tissue Plasma
[1] = 5 mg/kg, 72 h, dose level Low, time 3 day
[2] = 5 mg/kg, 120 h, dose level Low, time 5 day
[3] = 35 mg/kg, 72 h, dose level High, time 3 day
[4] = 35 mg/kg, 120 h, dose level High, time 5 day

COc1cc(CNC(=O)CCCC/C=C/C(C)C)ccc1O [CAPSAICIN]
ABSOLUTE BASOPHIL [1]: 0 CELLS/uL
ABSOLUTE EOSINOPHIL [1]: 231.67 CELLS/uL
ABSOLUTE LYMPHOCYTE [1]: 12823.67 CELLS/uL
ABSOLUTE MONOCYTE [1]: 176.33 CELLS/uL
ABSOLUTE SEGMENTED NEUTROPHIL [1]: 735 CELLS/uL
BASOPHIL [1]: 0%
EOSINOPHIL [1]: 1.33%
ERYTHROCYTE COUNT [1]: 5.55 x10E6/uL
HEMATOCRIT [1]: 34.43%
HEMOGLOBIN [1]: 12.97 G/DL
LEUKOCYTE COUNT [1]: 13.97 x10E3/uL
LYMPHOCYTE [1]: 92%
MEAN CORPUSCULAR HEMOGLOBIN [1]: 23.37 pg
MEAN CORPUSCULAR HEMOGLOBIN CONCENTRATION [1]: 37.63 G/DL
MEAN CORPUSCULAR VOLUME [1]: 62.03 fL
MONOCYTE [1]: 1.33%
NEUTROPHIL [1]: 5.33%
NUCLEATED RED BLOOD CELLS [1]: 0 /100WBC
PLATELET COUNT [1]: 1334 x10E3/uL
ALANINE AMINOTRANSFERASE [1]: 40.33 u/L
ALBUMIN [1]: 4.27 G/DL
ALKALINE PHOSPHATASE [1]: 433 u/L
ASPARTATE AMINOTRANSFERASE [1]: 75.33 u/L
BLOOD UREA NITROGEN [1]: 15 mg/dL
CARBON DIOXIDE [1]: 25.33 mmol/L
CHLORIDE [1]: 104.67 MEQ/L
CHOLESTEROL [1]: 57 mg/dL
CREATINE PHOSPHOKINASE [1]: 554.67 u/L
CREATININE [1]: 0.17 mg/dL
GLUCOSE [1]: 177.67 mg/dL
LACTATE DEHYDROGENASE [1]: 121 u/L
LIPASE [1]: 8 u/L
PHOSPHORUS [1]: 12.47 mg/dL
POTASSIUM [1]: 6.02 MEQ/L
SODIUM [1]: 145.37 MEQ/L
TOTAL BILIRUBIN [1]: 0.23 mg/dL
TOTAL PROTEIN [1]: 5.9 G/DL
URIC ACID [1]: 1.5 mg/dL
ABSOLUTE BASOPHIL [2]: 0 CELLS/uL
ABSOLUTE EOSINOPHIL [2]: 118.67 CELLS/uL
ABSOLUTE LYMPHOCYTE [2]: 14371.67 CELLS/uL
ABSOLUTE MONOCYTE [2]: 374.33 CELLS/uL
ABSOLUTE SEGMENTED NEUTROPHIL [2]: 1135.33 CELLS/uL
BASOPHIL [2]: 0%
EOSINOPHIL [2]: 0.67%
ERYTHROCYTE COUNT [2]: 5.31 x10E6/uL
HEMATOCRIT [2]: 33.03%
HEMOGLOBIN [2]: 12.53 G/DL
LEUKOCYTE COUNT [2]: 16 x10E3/uL
LYMPHOCYTE [2]: 89.67%
MEAN CORPUSCULAR HEMOGLOBIN [2]: 23.6 pg
MEAN CORPUSCULAR HEMOGLOBIN CONCENTRATION [2]: 37.93 G/DL
MEAN CORPUSCULAR VOLUME [2]: 62.17 fL
MONOCYTE [2]: 2.33%
NEUTROPHIL [2]: 7.33%
NUCLEATED RED BLOOD CELLS [2]: 0 /100WBC
PLATELET COUNT [2]: 1256.67 x10E3/uL
ALANINE AMINOTRANSFERASE [2]: 50 u/L
ALBUMIN [2]: 4.1 G/DL
ALKALINE PHOSPHATASE [2]: 314 u/L
ASPARTATE AMINOTRANSFERASE [2]: 93.67 u/L
BLOOD UREA NITROGEN [2]: 18.33 mg/dL
CARBON DIOXIDE [2]: 24.33 mmol/L
CHLORIDE [2]: 107.67 MEQ/L
CHOLESTEROL [2]: 68 mg/dL
CREATINE PHOSPHOKINASE [2]: 629.33 u/L
CREATININE [2]: 0.21 mg/dL
GLUCOSE [2]: 153 mg/dL
LACTATE DEHYDROGENASE [2]: 471.33 u/L
LIPASE [2]: 8.33 u/L
PHOSPHORUS [2]: 12.63 mg/dL
POTASSIUM [2]: 5.84 MEQ/L
SODIUM [2]: 145.1 MEQ/L
TOTAL BILIRUBIN [2]: 0.2 mg/dL
TOTAL PROTEIN [2]: 6.2 G/DL
URIC ACID [2]: 1.73 mg/dL
ABSOLUTE BASOPHIL [3]: 0 CELLS/uL
ABSOLUTE EOSINOPHIL [3]: 0 CELLS/uL
ABSOLUTE LYMPHOCYTE [3]: 7477.33 CELLS/uL
ABSOLUTE MONOCYTE [3]: 60 CELLS/uL
ABSOLUTE SEGMENTED NEUTROPHIL [3]: 496 CELLS/uL
BASOPHIL [3]: 0%
EOSINOPHIL [3]: 0%
ERYTHROCYTE COUNT [3]: 5.28 x10E6/uL
HEMATOCRIT [3]: 33.53%
HEMOGLOBIN [3]: 12.7 G/DL
LEUKOCYTE COUNT [3]: 8.03 x10E3/uL
LYMPHOCYTE [3]: 92.67%
MEAN CORPUSCULAR HEMOGLOBIN [3]: 24.13 pg
MEAN CORPUSCULAR HEMOGLOBIN CONCENTRATION [3]: 37.9 G/DL
MEAN CORPUSCULAR VOLUME [3]: 63.63 fL
MONOCYTE [3]: 1%
NEUTROPHIL [3]: 6.33%
NUCLEATED RED BLOOD CELLS [3]: 0.33 /100WBC
PLATELET COUNT [3]: 1342.33 x10E3/uL
ALANINE AMINOTRANSFERASE [3]: 44 u/L
ALBUMIN [3]: 4.33 G/DL
ALKALINE PHOSPHATASE [3]: 316 u/L
ASPARTATE AMINOTRANSFERASE [3]: 71.33 u/L
BLOOD UREA NITROGEN [3]: 17.33 mg/dL
CARBON DIOXIDE [3]: 27.67 mmol/L
CHLORIDE [3]: 103.5 MEQ/L
CHOLESTEROL [3]: 75.67 mg/dL
CREATINE PHOSPHOKINASE [3]: 217 u/L
CREATININE [3]: 0.22 mg/dL
GLUCOSE [3]: 141.67 mg/dL
LACTATE DEHYDROGENASE [3]: 119.33 u/L
LIPASE [3]: 8.5 u/L
PHOSPHORUS [3]: 11.67 mg/dL
POTASSIUM [3]: 5.75 MEQ/L
SODIUM [3]: 147.2 MEQ/L
TOTAL BILIRUBIN [3]: 0.27 mg/dL
TOTAL PROTEIN [3]: 6.13 G/DL
URIC ACID [3]: 1.1 mg/dL
ABSOLUTE BASOPHIL [4]: 0 CELLS/uL
ABSOLUTE EOSINOPHIL [4]: 117.33 CELLS/uL
ABSOLUTE LYMPHOCYTE [4]: 12147.67 CELLS/uL
ABSOLUTE MONOCYTE [4]: 58.67 CELLS/uL
ABSOLUTE SEGMENTED NEUTROPHIL [4]: 1243 CELLS/uL
BASOPHIL [4]: 0%
EOSINOPHIL [4]: 1%
ERYTHROCYTE COUNT [4]: 5.71 x10E6/uL
HEMATOCRIT [4]: 34.97%
HEMOGLOBIN [4]: 13.33 G/DL
LEUKOCYTE COUNT [4]: 13.57 x10E3/uL
LYMPHOCYTE [4]: 88.67%
MEAN CORPUSCULAR HEMOGLOBIN [4]: 23.4 pg
MEAN CORPUSCULAR HEMOGLOBIN CONCENTRATION [4]: 38.13 G/DL
MEAN CORPUSCULAR VOLUME [4]: 61.27 fL
MONOCYTE [4]: 0.33%
NEUTROPHIL [4]: 10%
NUCLEATED RED BLOOD CELLS [4]: 0 /100WBC
PLATELET COUNT [4]: 1274 x10E3/uL
ALANINE AMINOTRANSFERASE [4]: 52.67 u/L
ALBUMIN [4]: 4.07 G/DL
ALKALINE PHOSPHATASE [4]: 391 u/L
ASPARTATE AMINOTRANSFERASE [4]: 83.67 u/L
BLOOD UREA NITROGEN [4]: 18 mg/dL
CARBON DIOXIDE [4]: 25.67 mmol/L
CHLORIDE [4]: 105.33 MEQ/L
CHOLESTEROL [4]: 62 mg/dL
CREATINE PHOSPHOKINASE [4]: 166.33 u/L
CREATININE [4]: 0.21 mg/dL
GLUCOSE [4]: 177 mg/dL
LACTATE DEHYDROGENASE [4]: 115.67 u/L
LIPASE [4]: 8.67 u/L
PHOSPHORUS [4]: 13.17 mg/dL
POTASSIUM [4]: 6.01 MEQ/L
SODIUM [4]: 146.17 MEQ/L
TOTAL BILIRUBIN [4]: 0.17 mg/dL
TOTAL PROTEIN [4]: 6.03 G/DL
URIC ACID [4]: 1.8 mg/dL
